Assay results as given in PubChem BioAssay AID2060899 (Molecular Pharmacology Branch, DTP, NCI, 2025).

Tested on: 565726-208-R1-J5-PDC complex spheroids, growth inhibition
Assay: Anticancer human tumor 565726-208-R1-J5-PDC patient-derived pancreatic adenocarcinoma cell line growth inhibition [RAS]
Conditions: for viability, T/C: stronger effect = lower value
Method in brief: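 Multi-cell-type spheroids: tumor cells plus HUVEC endothelial cells and mesenchymal stem cells. RAS-pathway inhibitors were combined with targeted agents, each dosed in half-log steps down from clinical Cmax, or from 10 microM when Cmax was unknown.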
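Note: spheroids exposed to compounds for seven days before readout.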
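Throughout, for viability, T/C: 100% = DMSO vehicle control viability.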

## Cc1nc(N2CCC3(CC2)COC(C)C3N)c(CO)nc1Sc1ccnc(N)c1Cl (configuration not stated) + CCn1c(-c2cccnc2C(C)OC)c2c3cc(ccc31)N1CCOC(CC(NC(=O)C(C(C)C)N(C)C(=O)C3(F)CCN(C(=O)C#CC(C)(C)N(C)C)CC3)C(=O)N3CCCC(N3)C(=O)OCC(C)(C)C2)C1
Curve of first compound, second compound 0.000949 µM
  IC50: > 10 µM
Curve of first compound, second compound 0.003 µM
  IC50: > 10 µM
Curve of first compound, second compound 0.00949 µM
  IC50: > 10 µM
Curve of first compound, second compound 0.03 µM
  IC50: > 10 µM
Curve of first compound, second compound 0.0949 µM
  IC50: > 10 µM
Curve of first compound, second compound 0.3 µM
  IC50: > 10 µM
Second compound 0.000949 µM, first compound 0.0316 µM
  viability, T/C: 95.1%
Second compound 0.000949 µM, first compound 0.1 µM
  viability, T/C: 92.8%
Second compound 0.000949 µM, first compound 0.316 µM
  viability, T/C: 84.9%
Second compound 0.000949 µM, first compound 1 µM
  viability, T/C: 73.7%
Second compound 0.000949 µM, first compound 3.16 µM
  viability, T/C: 80%
Second compound 0.000949 µM, first compound 10 µM
  viability, T/C: 66.5%
Second compound 0.003 µM, first compound 0.0316 µM
  viability, T/C: 104%
Second compound 0.003 µM, first compound 0.1 µM
  viability, T/C: 97%
Second compound 0.003 µM, first compound 0.316 µM
  viability, T/C: 86.6%
Second compound 0.003 µM, first compound 1 µM
  viability, T/C: 77%
Second compound 0.003 µM, first compound 3.16 µM
  viability, T/C: 71%
Second compound 0.003 µM, first compound 10 µM
  viability, T/C: 70.6%
Second compound 0.00949 µM, first compound 0.0316 µM
  viability, T/C: 83.4%
Second compound 0.00949 µM, first compound 0.1 µM
  viability, T/C: 97.3%
Second compound 0.00949 µM, first compound 0.316 µM
  viability, T/C: 86.3%
Second compound 0.00949 µM, first compound 1 µM
  viability, T/C: 76.5%
Second compound 0.00949 µM, first compound 3.16 µM
  viability, T/C: 79.7%
Second compound 0.00949 µM, first compound 10 µM
  viability, T/C: 71.6%
Second compound 0.03 µM, first compound 0.0316 µM
  viability, T/C: 95.5%
Second compound 0.03 µM, first compound 0.1 µM
  viability, T/C: 87.3%
Second compound 0.03 µM, first compound 0.316 µM
  viability, T/C: 92.8%
Second compound 0.03 µM, first compound 1 µM
  viability, T/C: 89.3%
Second compound 0.03 µM, first compound 3.16 µM
  viability, T/C: 81.5%
Second compound 0.03 µM, first compound 10 µM
  viability, T/C: 69.6%
Second compound 0.0949 µM, first compound 0.0316 µM
  viability, T/C: 81%
Second compound 0.0949 µM, first compound 0.1 µM
  viability, T/C: 98.2%
Second compound 0.0949 µM, first compound 0.316 µM
  viability, T/C: 85.1%
Second compound 0.0949 µM, first compound 1 µM
  viability, T/C: 69.8%
Second compound 0.0949 µM, first compound 3.16 µM
  viability, T/C: 77.4%
Second compound 0.0949 µM, first compound 10 µM
  viability, T/C: 78.8%
Second compound 0.3 µM, first compound 0.0316 µM
  viability, T/C: 91.2%
Second compound 0.3 µM, first compound 0.1 µM
  viability, T/C: 79.8%
Second compound 0.3 µM, first compound 0.316 µM
  viability, T/C: 79.4%
Second compound 0.3 µM, first compound 1 µM
  viability, T/C: 69.8%
Second compound 0.3 µM, first compound 3.16 µM
  viability, T/C: 70.2%
Second compound 0.3 µM, first compound 10 µM
  viability, T/C: 59.2%

## C#Cc1c(F)ccc2cc(O)cc(-c3ncc4c(N5CC6CCC(C5)N6)nc(OCC56CCCN5CC(F)C6)nc4c3F)c12 (configuration not stated)
Compound 0.0316 µM
  viability, T/C: 104% [middle of 8 runs]
Compound 0.1 µM
  viability, T/C: 101% [middle of 8 runs]
Compound 0.316 µM
  viability, T/C: 94.6% [middle of 8 runs]
Compound 1 µM
  viability, T/C: 84.3% [middle of 8 runs]
Compound 3.16 µM
  viability, T/C: 78.7% [middle of 8 runs]
Compound alone, run of 07/15/2024
  IC50: > 10 µM

## C=CC(=O)Nc1cc(Nc2nccc(-c3cn(C)c4ccccc34)n2)c(OC)cc1N(C)CCN(C)C + C=CC(=O)N1CCN(c2nc(OCC3CCCN3C)nc3c(F)c(-c4nc(N)cc(C)c4C(F)(F)F)c(Cl)cc23)C(C)C1
Curve of first compound, second compound 0.00316 µM
  IC50: > 1 µM
Curve of first compound, second compound 0.01 µM
  IC50: > 1 µM
Curve of first compound, second compound 0.0316 µM
  IC50: > 1 µM
Curve of first compound, second compound 0.1 µM
  IC50: > 1 µM
Curve of first compound, second compound 0.316 µM
  IC50: > 1 µM
Curve of first compound, second compound 1 µM
  IC50: > 1 µM
Second compound 0.00316 µM, first compound 0.00316 µM
  viability, T/C: 105%
Second compound 0.00316 µM, first compound 0.01 µM
  viability, T/C: 171%
Second compound 0.00316 µM, first compound 0.0316 µM
  viability, T/C: 121%
Second compound 0.00316 µM, first compound 0.1 µM
  viability, T/C: 90.5%
Second compound 0.00316 µM, first compound 0.316 µM
  viability, T/C: 94.2%
Second compound 0.00316 µM, first compound 1 µM
  viability, T/C: 121%
Second compound 0.01 µM, first compound 0.00316 µM
  viability, T/C: 137%
Second compound 0.01 µM, first compound 0.01 µM
  viability, T/C: 150%
Second compound 0.01 µM, first compound 0.0316 µM
  viability, T/C: 106%
Second compound 0.01 µM, first compound 0.1 µM
  viability, T/C: 94.1%
Second compound 0.01 µM, first compound 0.316 µM
  viability, T/C: 80.9%
Second compound 0.01 µM, first compound 1 µM
  viability, T/C: 128%
Second compound 0.0316 µM, first compound 0.00316 µM
  viability, T/C: 168%
Second compound 0.0316 µM, first compound 0.01 µM
  viability, T/C: 157%
Second compound 0.0316 µM, first compound 0.0316 µM
  viability, T/C: 88.9%
Second compound 0.0316 µM, first compound 0.1 µM
  viability, T/C: 105%
Second compound 0.0316 µM, first compound 0.316 µM
  viability, T/C: 87.6%
Second compound 0.0316 µM, first compound 1 µM
  viability, T/C: 114%
Second compound 0.1 µM, first compound 0.00316 µM
  viability, T/C: 135%
Second compound 0.1 µM, first compound 0.01 µM
  viability, T/C: 162%
Second compound 0.1 µM, first compound 0.0316 µM
  viability, T/C: 124%
Second compound 0.1 µM, first compound 0.1 µM
  viability, T/C: 87.1%
Second compound 0.1 µM, first compound 0.316 µM
  viability, T/C: 82%
Second compound 0.1 µM, first compound 1 µM
  viability, T/C: 108%
Second compound 0.316 µM, first compound 0.00316 µM
  viability, T/C: 161%
Second compound 0.316 µM, first compound 0.01 µM
  viability, T/C: 152%
Second compound 0.316 µM, first compound 0.0316 µM
  viability, T/C: 99.8%
Second compound 0.316 µM, first compound 0.1 µM
  viability, T/C: 106%
Second compound 0.316 µM, first compound 0.316 µM
  viability, T/C: 74.8%
Second compound 0.316 µM, first compound 1 µM
  viability, T/C: 141%
Second compound 1 µM, first compound 0.00316 µM
  viability, T/C: 145%
Second compound 1 µM, first compound 0.01 µM
  viability, T/C: 159%
Second compound 1 µM, first compound 0.0316 µM
  viability, T/C: 101%
Second compound 1 µM, first compound 0.1 µM
  viability, T/C: 115%
Second compound 1 µM, first compound 0.316 µM
  viability, T/C: 87.3%
Second compound 1 µM, first compound 1 µM
  viability, T/C: 109%

## CC(=O)OC12COC1CC(O)C1(C)C(=O)C(O)C3=C(C)C(OC(=O)C(O)C(NC(=O)OC(C)(C)C)c4ccccc4)CC(O)(C(OC(=O)c4ccccc4)C21)C3(C)C (configuration not stated)
Compound 0.0316 µM
  viability, T/C: 20.4% [middle of 4 runs]
Compound 0.1 µM
  viability, T/C: 20.9% [middle of 4 runs]
Compound 0.316 µM
  viability, T/C: 19.3% [middle of 4 runs]
Compound 1 µM
  viability, T/C: 19.9% [middle of 4 runs]
Compound 3.16 µM
  viability, T/C: 24.2% [middle of 4 runs]
Compound 10 µM
  viability, T/C: 27% [middle of 4 runs]
Curve of compound
  IC50: < 0.0316 µM
